According to patent US10174013B2, “Benzimidazole derivatives as kinase inhibitors” (SELVITA S.A., priority 2012, dated 2019):
Structures can show the parent of a compound that is named as a salt.

Assays:
[1] = target: FLT3(ITD) (Homo sapiens, UniProt P36888, ITD); assay: Binding to FLT3(ITD) mutant (DiscoveRx)
Method: (§1) Selected compounds were also tested for their binding properties against FLT3 kinase mutants using suitable in vitro assays (performed according to standard assays at DiscoveRx Corporation). The compounds show strong binding to the main oncogenic mutants of the FLT3 kinase, see Table 1B.

[2] = target: FLT3(D835Y) (Homo sapiens (Human), UniProt P36888, D835Y); assay: Binding to FLT3(D835Y) mutant (DiscoveRx)
Method: as §1

[3] = tested on: Mino; assay: Combination study with anti-cancer agents, cell viability, Mino
Method: (§2) After this incubation, a cell viability assay was carried out according to the Manufacturer's instructions (CellTiter 96®AQueous Non-Radioactive Cell Proliferation Assay, Promega). The results were expressed as percentage of viable cells upon treatment with the individual drugs or the combination compared to the vehicle (DMSO) treated cells.

[4] = tested on: MV4-11; assay: Combination study with anti-cancer agents, cell viability, MV4-11; details: for ED50 value in MV4-11: single agent, used as fixed concentration in combination study; for Effect of combination: 72 hours
Method: as §2

[5] = tested on: U-937; assay: Combination study with anti-cancer agents, cell viability, U-937; details: for Effect of combination: 72 hours
Method: as §2

[6] = tested on: PC3; assay: Combination study with anti-cancer agents, cell viability, PC3; details: for Effect of combination: 72 hours
Method: as §2

[7] = target: FLT3wt (Homo sapiens (Human), UniProt P36888); assay: Binding to FLT3 wildtype (DiscoveRx)
[8] = tested on: Pim kinase biomarkers in MV4-11 cells; assay: Pim-kinase biomarkers in MV4-11 cells; format: cell-based, Human; details: 0.25-5 μM, 4 and 24 h
Method: The efficacy of compounds 1A and 2A on Pim kinase-inhibition was tested in MV4-11 cells (see above). Cells were treated with each compound at concentrations of 0.25, 0.5, 1, 2.5 and 5 μM for 4 and 24 h. The positive control Ref A (the commercially available inhibitor SGI-1776 [obtained from Selleck Bio]) was used at a concentration of 5 μM. DMSO (Dimethyl sulfoxide) was used as a negative control. The levels of the following classical Pim-1 kinase biomarkers were assessed: c-Myc, phospho-4EBP1 (Ser65, Thr37&46) and phosphorylated S6 (Ser235). […] Also, the levels of pro-apoptotic and pro-survival biomarkers were assessed. First, induction of apoptosis, recognizable as an appearance and increased expression of cleaved form of the PARP protein, was observed, both at 4 and 24 hours after compound stimulation at high concentrations. […] Levels of tubulin were assessed as a reference loading control.
The efficacy of compound 1BI on Pim kinase-inhibition was tested in MV4-11 cells. The cells were treated with compound 1BI at concentrations of 0.25, 0.5, 1, 2.5 and 5 μM for 4 and 24 h. The positive controls Ref. A (SGI-1776, see above) and Ref. B (the commercially available inhibitor Sunitinib [obtained from Ark Pharm]) were used at 5 μM concentration. DMSO (Dimethyl sulfoxide) was used as a negative control. The levels of the following classical Pim-1 kinase biomarkers were assessed: c-myc, phospho-4EBP1 (Ser65, Thr37&46) and phosphorylated S6 (Ser235/236). […] The levels of pro-apoptotic and pro-survival biomarkers were also assessed. […] Levels of tubulin were assessed as a reference loading control.

[9] = tested on: HEL-92; assay: Combination study with anti-cancer agents, cell viability, HEL-92; details: for Effect of combination: 72 hours
Method: as §2

[10] = target: FLT3(D835H) (Homo sapiens (Human), UniProt P36888, D835H); assay: Binding to FLT3(D835H) mutant (DiscoveRx)
Method: as §1

[11] = tested on: Pim kinase biomarkers in MOLM16 cells; assay: Pim-kinase biomarkers in MOLM16 cells; format: cell-based, Human; details: 0.1-2.5 μM, 4 and 24 h
Method: The efficacy of compound 1BI on Pim kinase-inhibition was also tested in MOLM16 cells (an acute myeloid leukemia cell line). The cells were treated with compound 1BI at concentrations of 0.1, 0.25, 0.5, 1 and 2.5 μM for 4 and 24 h. The positive controls Ref. A (SGI-1776, see above) and Ref. B (Sunitinib, see above) were used at 5 μM concentration. DMSO (Dimethyl sulfoxide) was used as a negative control. The levels of the following classical Pim-1 kinase biomarkers were assessed: c-myc, phospho-4EBP1 (Scr65, Thr37&46) and phosphorylated S6 (Scr235/236). […] The levels of a pro-apoptotic biomarker were assessed; induction of apoptosis, presented as an appearance and increased expression of cleaved form of PARP protein, was observed. Levels of tubulin were assessed as a reference loading control.

[12] = tested on: MOLM-16; assay: Combination study with anti-cancer agents, cell viability, MOLM-16; details: for Effect of combination: MOLM-16 (Acute myeloid leukemia), 72 hours
Method: as §2

[13] = tested on: MOLM16 xenograft; assay: MOLM16 xenograft in immunocompromised mice; format: in vivo; details: 100 mg/Kg QD
Text: Several compounds of the present invention have been studied in a xenograft in mice, an in vivo tumor transplantation model used to investigate the factors involved in malignant transformation, invasion and metastasis, as well as to examine response to therapy. For the purpose of acceptance of donor leukemic cells (MV4-11 or MOLM16 cells), immunocompromised mice were used, namely particularly severely compromised immunodeficient mice (NOD/scid, SCID/beige). When tumors developed size of approx. 50-200 mm^3, the compounds as indicated below in Tables 3 and 3a were administered orally every day for 2-3 weeks, in once a day (QD) or twice a day (BID) schedule. During the course of the experiment, the mice were monitored and the following two parameters were measured: the tumor growth inhibition (TGI) factor as a measure of therapeutic efficacy and the body weight change (ΔBW) factor as a measure of possible compound toxicity. The results are depicted in Tables 3 and 3a.
Additionally, compound 2A, together with other examples was tested in MOLM16 cells xenografted into immunocompromised mice.

[14] = single agent, used as fixed concentration in combination study

CCn1c(N2CCNCC2)nc2c([N+](=O)[O-])c(Br)c(Br)cc21 [Example 1A, 5,6-dibromo-1-ethyl-4-nitro-2-(piperazin-1-yl)-1H-1,3-benzodiazole hydrochloride]
Kd [1]: 74 nM | Kd [2]: 46 nM | ED50 value in Mino [3, 14]: 1700 nM | Effect of combination ([3]; with PD0332991, Mino (Mantle cell lymphoma), 72 hours): Synergistic | ED50 value in MV4-11 [4]: 500 nM | Effect of combination ([4]; with CAL-101, MV4-11 (Acute myeloid leukemia)): Synergistic | ED50 value in U-937 [5, 14]: 6640 nM | Effect of combination ([5]; with ABT737, U937 (Histiocytic lymphoma)): Synergistic | Effect of combination ([5]; with Obatoclax, U937 (Histiocytic lymphoma)): Synergistic | ED50 value in PC3 [6, 14]: 2910 nM | Effect of combination ([6]; with CAL-101, PC3 (Prostate cancer)): Synergistic | Effect of combination ([6]; with GDC-0941, PC3 (Prostate cancer)): Synergistic/ | Effect of combination ([6]; with Rapamycin, PC3 (Prostate cancer)): Synergistic | Effect of combination ([6]; with Wortmannin, PC3 (Prostate cancer)): Synergistic | Kd [7]: 400 nM | Mcl-1 pro-survival protein level [8]: dosed-dependent protein down-regulation | induction of apoptosis (cleaved form of PARP protein) [8]: observed | levels of c-myc protein [8]: downregulated | levels of phosphorylated 4EBP1 (Ser65, Thr37&46) [8]: downregulated | levels of phosphorylated S6 [8]: downregulated | levels of phosphorylated p44/42 (Erk1/2), Flt3 biomarker [8]: downregulated | ED50 value in HEL-92 [9, 14]: 5460 nM | Effect of combination ([9]; with CP690550, HEL92 (Erythroleukemia)): Synergistic | Effect of combination ([9]; with Cyt387, HEL92 (Erythroleukemia)): Synergistic | Effect of combination ([9]; with Ruxolitinib, HEL92 (Erythroleukemia)): Synergistic/ | Kd [10]: 120 nM

CC(C)n1c(N2CC[C@@H](N)C2)nc2c(C#N)c(Br)c(Br)cc21 [Example 1BI]
induction of apoptosis (cleaved form of PARP protein) [11]: observed | levels of c-myc protein [11]: downregulated | levels of phosphorylated 4EBP1 (Ser65 and Thr37/46) [11]: downregulated | levels of phosphorylated S6 [11]: diminished completely | Mcl-1 pro-survival protein level [8]: dosed-dependent protein down-regulation | induction of apoptosis (cleaved form of PARP protein) [8]: observed in the highest concentration at 4 hours | levels of c-myc protein [8]: down-regulated | levels of phosphorylated 4EBP1 (Ser65, Thr37&46) [8]: down-regulated | levels of phosphorylated S6 [8]: diminished almost completely | levels of phosphorylated p44/42 (Erk1/2), Flt3 biomarker [8]: downregulated

CC(C)n1c(C2CCNCC2)nc2c([N+](=O)[O-])c(Br)c(Br)cc21 [Example 26A, 5,6-dibromo-4-nitro-2-(piperidin-4-yl)-1-(propan-2-yl)-1H-1,3-benzodiazole]
ED50 value in MOLM-16 [12, 14]: 400 nM | Effect of combination ([12]; with C (Cytarabine)): Synergistic | Effect of combination ([12]; with V (Vosaroxin)): Synergistic | ED50 value in MV4-11 [4]: 100 nM | Effect of combination ([4]; with C (Cytarabine), MV4-11 (Acute myeloid leukemia)): Synergistic | Effect of combination ([4]; with V (Vosaroxin), MV4-11 (Acute myeloid leukemia)): Synergistic

CC(C)n1c(N2CCNCC2)nc2c([N+](=O)[O-])c(Br)c(Br)cc21 [Example 2A, 5,6-dibromo-4-nitro-2-(piperazin-1-yl)-1-(propan-2-yl)-1H-1,3-benzodiazole hydrochloride]
Kd [1]: 18 nM | ΔBW (body weight change) [13]: −8.6% | TGI (tumor growth inhibition) ([13]; hydrochloride): >99%
